In patent US20110263588A1, “TRICYCLIC COMPOUNDS AS GLUTAMATE RECEPTOR MODULATORS” (GLAXO GROUP LIMITED, priority 2008, published 2011):

molecular target: T1, human mGlu5 recombinant receptor (Homo sapiens, UniProt P41594); assay: mGluR5 calcium mobilization in inducible mGluR5 CHO cells (aequorin luminescence, antagonist mode); assay type: cell-based; conditions: Table 3; antagonist activity against EC80 glutamate, inducible CHO cell line expressing human mGlu5 and Aequorin; read-out: IC50 (uM) Ca^++ flux
T1 construct: expressed in transfected cells; host or cells: inducible CHO cell line stably expressing Aequorin (Euroscreen FAST); doxycycline-responsive promoter
Description: mGluR5 Calcium Mobilization in Inducible mGluR5 CHO Cells
To functionally measure mGluR5 calcium mobilization in response to agonists or antagonists, an inducible CHO cell line expressing the human mGlu5 recombinant receptor was used. This cell line also stably expressed Aequorin (Euroscreen FAST), a photoprotein that spontaneously couples with coelenterazine h when added exogenously in the cell media. The Aequorin-coelenterzine h complex undergoes a conformational change upon binding of calcium ions which results in the emission of blue light (wavelength 469 nm) that was measured using a Hamamatsu Functional Drug Screening System 6000.
mGluR5 expression was induced by a doxycycline responsive promoter by growing cells to mid-log phase for 18 hours in media without antibiotics and supplemented with doxycycline (600 ng/mL). Cells were detached from the plate by gentle flushing using PBS-EDTA (5 mM EDTA) and centrifuged for collection and resuspended in “assay buffer” (HBSS, 2.1 mM CaCl2, 2 ug/mL glutamate-pyruvate transaminase, 4 mM MEM sodium pyruvate, and 0.1% protease free BSA). Cells were incubated with coelenterazine h (Molecular Probes) at room temperature for 4 hours before testing.
To measure mGluR5 antagonist activity, cell suspensions containing test compound were mixed with EC80 glutamate and emission of light was recorded. Reference and test compounds were tested at several concentrations in duplicate to obtain dose response curves using the Prism GraphPad software (GraphPad Software Inc.). IC50 values were calculated from the dose response curves using the equation:
Y=Bottom+(Top−Bottom)/(1+10̂((LogEC50−X)*HillSlope)).

T1 sequence (P41594 21-1212): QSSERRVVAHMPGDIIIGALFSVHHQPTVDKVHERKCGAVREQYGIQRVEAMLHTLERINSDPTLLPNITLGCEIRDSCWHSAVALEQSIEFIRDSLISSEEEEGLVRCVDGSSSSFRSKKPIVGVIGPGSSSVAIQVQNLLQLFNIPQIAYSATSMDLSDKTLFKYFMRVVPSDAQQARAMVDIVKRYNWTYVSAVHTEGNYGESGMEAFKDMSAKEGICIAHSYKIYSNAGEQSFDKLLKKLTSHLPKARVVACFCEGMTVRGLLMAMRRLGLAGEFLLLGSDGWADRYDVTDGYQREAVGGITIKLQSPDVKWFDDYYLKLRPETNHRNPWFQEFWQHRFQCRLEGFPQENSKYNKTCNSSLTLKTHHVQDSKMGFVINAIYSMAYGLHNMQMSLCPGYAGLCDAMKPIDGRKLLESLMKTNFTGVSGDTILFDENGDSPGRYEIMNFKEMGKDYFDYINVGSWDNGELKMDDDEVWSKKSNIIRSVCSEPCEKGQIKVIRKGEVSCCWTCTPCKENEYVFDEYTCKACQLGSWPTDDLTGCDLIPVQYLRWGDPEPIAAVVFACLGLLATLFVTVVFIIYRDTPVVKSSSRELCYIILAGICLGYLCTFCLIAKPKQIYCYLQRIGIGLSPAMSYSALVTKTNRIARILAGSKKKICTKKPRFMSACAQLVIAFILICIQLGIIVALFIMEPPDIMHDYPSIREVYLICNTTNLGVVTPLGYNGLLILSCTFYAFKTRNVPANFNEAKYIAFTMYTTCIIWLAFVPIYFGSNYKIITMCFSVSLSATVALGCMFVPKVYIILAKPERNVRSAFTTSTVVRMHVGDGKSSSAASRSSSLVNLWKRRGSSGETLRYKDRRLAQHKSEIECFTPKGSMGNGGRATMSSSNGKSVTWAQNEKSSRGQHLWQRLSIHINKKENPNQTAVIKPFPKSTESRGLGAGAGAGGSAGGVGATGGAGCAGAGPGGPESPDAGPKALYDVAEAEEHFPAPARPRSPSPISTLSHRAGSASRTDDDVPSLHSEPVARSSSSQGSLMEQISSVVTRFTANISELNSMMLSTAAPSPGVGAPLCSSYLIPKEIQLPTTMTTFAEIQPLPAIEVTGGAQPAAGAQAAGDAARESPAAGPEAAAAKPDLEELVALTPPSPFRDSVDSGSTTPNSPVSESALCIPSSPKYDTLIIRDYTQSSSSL

| IC50 [µM] | SMILES |
| --- | --- |
| 1 to 10 | COc1ccc(Cl)cc1NC(=O)c1nn(C)c2c1COc1ccccc1-2 [N-(5-chloro-2-methoxyphenyl)-1-methyl-1,4-dihydrochromeno[4,3-c]pyrazole-3-carboxamide] |
| < 1 | Cn1nc(C(=O)Nc2ccc(Cl)cn2)c2c1-c1ccccc1OC2 [N-(5-chloropyridin-2-yl)-1-methyl-1,4-dihydrochromeno[4,3-c]pyrazole-3-carboxamide] |
| > 10 | O=C(Nc1cccnc1)c1n[nH]c2c1COc1ccccc1-2 [N-(pyridin-3-yl)-1,4-dihydrochromeno[4,3-c]pyrazole-3-carboxamide] |
